These results are taken from patent US20250179000A1 (Sanford Burnham Prebys Medical Discovery Institute, priority 2021, published 2025).

The target of experiment [1] is T1, Rat mGlu3 (Rattus norvegicus, UniProt P31422).
T1 construct: expressed in transfected cells; host or cells: HEK-293 co-expressing GIRK channels
As to the kind of experiment: mGlu receptor in vitro assay (thallium flux through GIRK channels / calcium assay), rat mGlu3. Type of experiment: cell-based. The note with it: PAM potency with EC20 glutamate. Summed up: (§1)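 HEK-293 cells co-expressing rat mGlu2 or mGlu3 and GIRK, dye-loaded with FluoZin2-AM, compound added about 2.5 min before thallium buffer with EC20 glutamate; potency from the 5-15 s fluorescence slope, 10-point 4-parameter fit. Calcium assay at mGlu3 used TREx293 mGlu3 Gα15 cells induced with tetracycline 20 ng/mL for 20 h.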

For experiment [2], the target named is Human mGlu2 (Homo sapiens, UniProt Q14416). The experiment in a line: mGlu receptor in vitro assay, human mGlu2. Type of experiment: cell-based.
In experiment [3] the target is T2, Rat mGlu2 (Rattus norvegicus, UniProt P31421).
T2 construct: expressed in transfected cells; host or cells: HEK-293 co-expressing GIRK channels
As to the kind of experiment: mGlu receptor in vitro assay, thallium flux through GIRK channels, rat mGlu2. Type of experiment: cell-based. The note with it: PAM potency with EC20 glutamate. Summed up:
as §1

The target in experiment [4] is Human mGlu3 (Homo sapiens, UniProt Q14832). The experiment in a line: mGlu receptor in vitro assay, human mGlu3. Type of experiment: cell-based.
In experiment [5] the test system is cocaine-seeking in rats. To be noted: systemic injections; cited from earlier work.
Experiment [6] relates to cocaine craving. The note with it: preliminary results in humans; cited from earlier work.

Bounds are passed on as bounds.

T2 sequence (P31421 19-872): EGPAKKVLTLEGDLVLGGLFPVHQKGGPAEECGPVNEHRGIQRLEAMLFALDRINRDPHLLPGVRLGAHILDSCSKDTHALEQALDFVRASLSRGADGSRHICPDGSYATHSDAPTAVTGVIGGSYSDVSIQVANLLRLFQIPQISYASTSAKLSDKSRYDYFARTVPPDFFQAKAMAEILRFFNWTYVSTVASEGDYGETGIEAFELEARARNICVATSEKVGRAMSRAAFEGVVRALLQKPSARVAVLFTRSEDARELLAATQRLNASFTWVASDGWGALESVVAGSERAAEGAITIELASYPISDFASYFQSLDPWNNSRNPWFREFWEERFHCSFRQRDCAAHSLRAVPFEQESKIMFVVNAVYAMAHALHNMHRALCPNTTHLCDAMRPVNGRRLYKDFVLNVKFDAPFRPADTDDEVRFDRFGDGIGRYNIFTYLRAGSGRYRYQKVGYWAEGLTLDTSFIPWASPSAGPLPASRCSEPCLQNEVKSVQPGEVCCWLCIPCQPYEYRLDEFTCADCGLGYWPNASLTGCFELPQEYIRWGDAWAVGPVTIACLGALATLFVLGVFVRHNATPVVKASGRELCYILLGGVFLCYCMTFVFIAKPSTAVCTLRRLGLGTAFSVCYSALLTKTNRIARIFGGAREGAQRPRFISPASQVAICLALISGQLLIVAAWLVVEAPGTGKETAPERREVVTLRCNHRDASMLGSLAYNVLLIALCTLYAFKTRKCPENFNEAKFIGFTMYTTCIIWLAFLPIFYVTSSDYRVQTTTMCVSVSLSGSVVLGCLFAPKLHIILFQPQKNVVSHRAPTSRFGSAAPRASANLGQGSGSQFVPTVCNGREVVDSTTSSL
Chain of Human mGlu2 (Q14416 19-872): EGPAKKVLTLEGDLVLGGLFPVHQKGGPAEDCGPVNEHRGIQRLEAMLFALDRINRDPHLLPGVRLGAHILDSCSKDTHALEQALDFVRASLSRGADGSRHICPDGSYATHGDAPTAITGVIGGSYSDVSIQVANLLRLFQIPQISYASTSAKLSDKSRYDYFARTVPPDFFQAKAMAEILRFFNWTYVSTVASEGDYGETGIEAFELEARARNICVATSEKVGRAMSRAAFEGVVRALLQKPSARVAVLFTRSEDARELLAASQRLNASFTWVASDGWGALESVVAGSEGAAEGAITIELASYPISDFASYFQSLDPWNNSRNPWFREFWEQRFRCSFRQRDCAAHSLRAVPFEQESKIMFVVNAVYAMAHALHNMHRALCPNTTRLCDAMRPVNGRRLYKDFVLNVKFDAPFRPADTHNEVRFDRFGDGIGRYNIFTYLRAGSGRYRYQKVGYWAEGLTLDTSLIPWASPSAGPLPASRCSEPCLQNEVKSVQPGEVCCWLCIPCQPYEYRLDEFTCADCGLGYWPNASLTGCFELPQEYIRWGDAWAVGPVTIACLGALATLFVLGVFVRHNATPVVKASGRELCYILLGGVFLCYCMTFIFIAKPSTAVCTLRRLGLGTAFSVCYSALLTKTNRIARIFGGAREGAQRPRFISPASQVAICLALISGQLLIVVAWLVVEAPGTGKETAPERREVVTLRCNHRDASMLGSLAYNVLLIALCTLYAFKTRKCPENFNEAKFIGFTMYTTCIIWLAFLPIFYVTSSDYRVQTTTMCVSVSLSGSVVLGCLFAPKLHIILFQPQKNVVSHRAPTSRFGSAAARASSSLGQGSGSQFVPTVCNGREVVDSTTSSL
Chain of Human mGlu3 (Q14832 23-879): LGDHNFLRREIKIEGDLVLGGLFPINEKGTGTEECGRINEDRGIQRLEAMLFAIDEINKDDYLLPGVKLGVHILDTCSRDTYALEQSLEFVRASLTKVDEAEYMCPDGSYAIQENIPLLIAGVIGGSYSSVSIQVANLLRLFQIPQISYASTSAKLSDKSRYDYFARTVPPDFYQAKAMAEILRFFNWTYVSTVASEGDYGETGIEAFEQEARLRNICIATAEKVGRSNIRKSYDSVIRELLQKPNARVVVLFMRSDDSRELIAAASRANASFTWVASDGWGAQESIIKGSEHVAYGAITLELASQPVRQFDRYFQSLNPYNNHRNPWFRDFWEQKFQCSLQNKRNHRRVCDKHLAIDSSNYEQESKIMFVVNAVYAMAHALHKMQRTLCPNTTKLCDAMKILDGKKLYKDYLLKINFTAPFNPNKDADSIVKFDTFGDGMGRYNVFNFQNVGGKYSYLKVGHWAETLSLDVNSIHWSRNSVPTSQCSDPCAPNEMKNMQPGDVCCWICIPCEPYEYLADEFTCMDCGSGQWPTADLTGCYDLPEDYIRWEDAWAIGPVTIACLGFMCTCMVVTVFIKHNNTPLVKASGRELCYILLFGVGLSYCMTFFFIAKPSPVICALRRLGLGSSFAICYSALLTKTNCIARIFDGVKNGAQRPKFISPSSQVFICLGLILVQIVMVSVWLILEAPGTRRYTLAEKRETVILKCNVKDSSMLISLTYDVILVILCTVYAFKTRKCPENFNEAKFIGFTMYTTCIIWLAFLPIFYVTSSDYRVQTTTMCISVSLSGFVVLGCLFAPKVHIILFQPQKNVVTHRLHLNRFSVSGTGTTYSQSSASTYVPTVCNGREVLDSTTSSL
T1 sequence (P31422 23-879): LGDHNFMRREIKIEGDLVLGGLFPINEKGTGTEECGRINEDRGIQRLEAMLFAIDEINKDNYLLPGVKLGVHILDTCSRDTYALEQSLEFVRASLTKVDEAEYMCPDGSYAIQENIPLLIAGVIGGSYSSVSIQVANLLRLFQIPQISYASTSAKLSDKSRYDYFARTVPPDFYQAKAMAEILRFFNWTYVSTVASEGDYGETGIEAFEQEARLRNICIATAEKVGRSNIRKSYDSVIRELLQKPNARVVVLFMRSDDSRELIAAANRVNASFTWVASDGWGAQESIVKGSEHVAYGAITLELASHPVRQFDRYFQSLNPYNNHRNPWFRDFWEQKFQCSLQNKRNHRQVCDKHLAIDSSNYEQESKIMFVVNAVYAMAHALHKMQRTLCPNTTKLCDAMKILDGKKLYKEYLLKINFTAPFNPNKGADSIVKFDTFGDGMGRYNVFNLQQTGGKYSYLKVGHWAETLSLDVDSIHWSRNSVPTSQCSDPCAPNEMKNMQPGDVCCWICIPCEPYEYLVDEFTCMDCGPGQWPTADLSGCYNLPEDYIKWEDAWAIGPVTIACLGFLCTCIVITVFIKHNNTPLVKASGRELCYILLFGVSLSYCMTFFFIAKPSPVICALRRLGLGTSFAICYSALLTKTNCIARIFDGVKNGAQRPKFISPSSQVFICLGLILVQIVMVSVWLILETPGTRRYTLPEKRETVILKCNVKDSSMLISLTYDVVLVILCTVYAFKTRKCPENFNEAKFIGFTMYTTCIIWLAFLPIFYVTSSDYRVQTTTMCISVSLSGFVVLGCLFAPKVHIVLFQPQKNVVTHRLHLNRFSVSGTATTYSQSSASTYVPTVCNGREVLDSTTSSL

As a reminder, the EC50 is the concentration at which the effect is half-maximal. Consider `COc1ccc(C(=O)O)cc1OCCCCCOc1ccc(C(=O)CC(C)(C)C)c(O)c1C` [Example 11, 3-{5-[4-(3,3-Dimethylbutanoyl)-3-hydroxy-2-methylphenoxy]pentyloxy}-4-methoxybenzoic acid], for which the EC50 in experiment [1] was 315 nM; in experiment [2], 7 nM; in experiment [3], 35 nM; in experiment [4] it was 126 nM.
For the compound `CCCC(=O)c1ccc(OCCSCCOc2cccc(C(=O)O)c2C)c(C)c1O` [Example 16, 3-{2-[2-(4-Butanoyl-3-hydroxy-2-methylphenoxy)ethylthio]ethoxy}-2-methylbenzoic acid], the EC50 in experiment [1] was above 10000 nM; in experiment [2] it was 28 nM; in experiment [3], 56 nM; in experiment [4], above 30000 nM.
Consider `COc1c(C(=O)O)cccc1-c1cccc(COc2ccc(C(=O)CC(C)(C)C)c(O)c2C)c1` [compound 102, 3-(3-{[4-(3,3-Dimethylbutanoyl)-3-hydroxy-2-methylphenoxy]methyl}phenyl)-2-methoxybenzoic acid], for which the EC50 amounted to 493 nM in experiment [1], 54 nM in experiment [2], 93 nM in experiment [3] and 159 nM in experiment [4].
For `COc1ccc(C(=O)O)cc1OCCCCCCOc1ccc(C(=O)CC(C)(C)C)c(O)c1C` [Example 19, 3-{6-[4-(3,3-Dimethylbutanoyl)-3-hydroxy-2-methylphenoxy]hexyloxy}-4-methoxybenzoic acid] the same measures were 818 nM, 165 nM, 288 nM and 472 nM.
Take `COc1ccc(C(=O)O)cc1OCCCCSc1ccc(C(=O)CC(C)(C)C)c(O)c1C` [compound 84, 3-{4-[4-(3,3-Dimethylbutanoyl)-3-hydroxy-2-methylphenylthio]butoxy}-4-methoxybenzoic acid]: the EC50 in experiment [1] came to 953 nM; in experiment [2] it was 126 nM; in experiment [3], 382 nM; in experiment [4], 340 nM.
For `Cc1c(OCCSCCOc2ccc(C(=O)CC(C)(C)C)c(O)c2C)cccc1C(=O)O` [Example 25] the same measures were 578 nM, 60 nM, 137 nM and 311 nM.
Consider `CCCC(=O)c1ccc(OC/C=C/COc2ccc(C(=O)O)c(Cl)c2)c(C)c1O` [Example 44, 4-[(2E)-4-(4-Butanoyl-3-hydroxy-2-methylphenoxy)but-2-enyloxy]-2-chlorobenzoic acid], for which the EC50 amounted to 1030 nM in experiment [1], 20 nM in experiment [2], 44 nM in experiment [3] and 1130 nM in experiment [4].
For `CCCC(=O)c1ccc(OCCCCCOc2ccc(C(=O)O)cc2OC)c(C)c1O` [Example 14, 4-[5-(4-Butanoyl-3-hydroxy-2-methylphenoxy)pentyloxy]-3-methoxybenzoic acid] the same measures were 2300 nM, 9 nM, 16 nM and above 30000 nM.
The like results for `CCCC(=O)c1ccc(OCCC(C)(C)CCOc2cccc(C(=O)O)c2C)c(C)c1O` [Example 30, 3-[5-(4-Butanoyl-3-hydroxy-2-methylphenoxy)-3,3-dimethylpentyloxy]-2-methylbenzoic acid] were, in that order, above 10000 nM, 55 nM, 265 nM and above 10000 nM.
For `CCCC(=O)c1ccc(OCCCCCOc2ccc(C(=O)O)c(Cl)c2)c(C)c1O` [Example 54, 4-[5-(4-Butanoyl-3-hydroxy-2-methylphenoxy)pentyloxy]-2-chlorobenzoic acid] the same measures were 577 nM, 6 nM, 8 nM and 300 nM.
With `CCCC(=O)c1ccc(OCCCCCOc2ccc(Cl)c(C(=O)O)c2)c(C)c1O` [Example 52, 5-[5-(4-Butanoyl-3-hydroxy-2-methylphenoxy)pentyloxy]-2-chlorobenzoic acid], the EC50 in experiment [1] was above 30000 nM; in experiment [2], 25 nM; in experiment [3] it was 36 nM; in experiment [4], above 30000 nM.
Turning to `CC(=O)N[C@@H](CS)C(=O)O` [N-acetylcysteine], in experiment [5], the reinstatement of cocaine-seeking result is recorded as “attenuated”. For the same compound, in experiment [6], the cocaine craving entry is “attenuated cocaine craving”.
In the case of `Cc1c(OCOc2ccc(C(=O)CC(C)(C)C)c(O)c2C)cccc1C(=O)O` [compound 94, 3-{[4-(3,3-Dimethylbutanoyl)-3-hydroxy-2-methylphenoxy]methoxy}-2-methylbenzoic acid], the EC50 was above 30000 nM in experiment [1], 100 nM in experiment [2], 441 nM in experiment [3] and above 10000 nM in experiment [4].
Regarding `COc1cc(F)c(C(=O)O)cc1-c1cnc(COc2ccc(C(=O)CC(C)(C)C)c(O)c2C)cn1` [compound 130, 5-(5-((4-(3,3-Dimethylbutanoyl)-3-hydroxy-2-methylphenoxy)methyl)pyrazin-2-yl)-2-fluoro-4-methoxybenzoic acid], the EC50 was 53 nM in experiment [1], 76 nM in experiment [2], 254 nM in experiment [3] and 31 nM in experiment [4].
Consider `CCCC(=O)c1ccc(OC/C=C/COc2cccc(C(=O)O)c2C)c(C)c1O` [Example 8, (E)-3-((4-(4-Butyryl-3-hydroxy-2-methylphenoxy)but-2-en-1-yl)oxy)-2-methylbenzoic acid], for which the EC50 in experiment [1] was 489 nM; in experiment [2] it was 10 nM; in experiment [3], 19 nM; in experiment [4], 534 nM.
For `COc1cc(F)c(C(=O)O)cc1-c1cccc(COc2ccc(C(=O)CC(C)(C)C)c(O)c2C)c1` [Example 164, 3′-((4-(3,3-dimethylbutanoyl)-3-hydroxy-2-methylphenoxy)methyl)-4-fluoro-6-methoxy-[1,1′-biphenyl]-3-carboxylic acid] the same measures were 559 nM, 39 nM, 110 nM and 242 nM.
The like results for `CCCC(=O)c1ccc(OCCSCCOc2ccc(C(=O)O)c(Cl)c2)c(C)c1O` [Example 42] were, in that order, 552 nM, 28 nM, 27 nM and 371 nM.
For `COc1ccc(C(=O)O)cc1-c1cncc(COc2ccc(C(=O)C3CC3)c(O)c2C)n1` [compound 69, 3-(6-((4-(Cyclopropanecarbonyl)-3-hydroxy-2-methylphenoxy)methyl)pyrazin-2-yl)-4-methoxybenzoic acid] the same measures were 28 nM, 33 nM, 49 nM and 23 nM.
Regarding `Cc1c(OCc2cnc(-c3ccc(F)c(C(=O)O)c3)cn2)ccc(C(=O)CC(C)(C)C)c1O` [compound 115, 5-(5-((4-(3,3-Dimethylbutanoyl)-3-hydroxy-2-methylphenoxy)methyl)pyrazin-2-yl)-2-fluorobenzoic acid], the EC50 in experiment [1] came out at 43 nM; in experiment [2], 355 nM; in experiment [3], 356 nM; in experiment [4] it was 156 nM.
